Experimental data as given in patent publication US20250376659A1, “DERIVATION OF SOMATOTROPHS FROM STEM CELLS AND USES THEREOF” (MEMORIAL SLOAN-KETTERING CANCER CENTER, priority 2017, published 2025).
Entries after “also recorded” stand apart in the source; their conditions may differ. No end group written: not given here.

B1: IL10: interleukin (protein, UniProt P22301 19-178, looked up)
Interleukin-10: SPGQGTQSENSCTHFPGNLPNMLRDLRDAFSRVKTFFQMKDQLDNLLLKESLLEDFKGYLGCQALSEMIQFYLEEVMPQAENQDPDIKAHVNSLGENLKTLRLRLRRCHRFLPCENKSKAVEQVKNAFNKLQEKGIYKAMSEFDIFINYIEAYMTMKIRN
B2: FGF8: activator of FGF signaling, dorsalizing agent (protein, UniProt P55075 23-233, looked up)
Fibroblast growth factor 8: QEGPGRGPALGRELASLFRAGREPQGVSQQHVREQSLVTDQLSRRLIRTYQLYSRTSGKHVQVLANKRINAMAEDGDPFAKLIVETDTFGSRVRVRGAETGLYICMNKKGKLIAKSNGKGKDCVFTEIVLENNYTALQNAKYEGWYMAFTRKGRPRKGSKTRQHQREVHFMKRLPRGHHTTEQSLRFEFLNYPPFTRSLRGSQRTWAPEPR

Experiments:
Human ES or iPS cells = assay: Marker gene expression during step-wise differentiation of human pluripotent stem cells to somatotrophs; format: cell-based; details: for PIT1 expression: FIG. 4, FIG. 5, FIG. 16; for PIT1 expression / GH1 expression: compared with the control group; for GH1 expression: FIG. 6, 7A, 7B, 16
Description: Human ES or iPS cells were expanded in E8 media on matrigel.
On day 0, cells were changed to E6 media where BMP4 (5 ng/ml) and SB43152 (10 μM) were added, with daily medium and factors change.
On day 3, BMP4 was removed and the following factors added: FGF8 (100 ng/ml); FGF10 (50 ng/ml); FGF18 (50 ng/ml); Sonic hedgehog (SHH) (100 ng/ml) or SAG (Smoothened Agonist) (100 nM); LDN193189 (250 nM). Media and factors were changed every other day.
Media and factors are changed every other day.
(§1) On day 15, the following factors were used: Retinoic acid (1 μM); Thyroid hormone T3 (10 nM); Dexamethasone (1 μM); cyclic AMP (100 μg/ml); DPN (0.1 nM); Growth Hormone Releasing Hormone (GHRH) (1 μM). Media and factors were changed every other day.
On day 29, the cells entered the maturation phase and could be maintained in the same factors for a variable period ranging from 1-4 weeks. […] They could be subjected to FACS sorting for GHRH in order to obtain a pure cell population of somatotrophs. Cells remained on matrigel for the duration of the protocol.
In order to derive GH cells, the strategy was to first differentiate human pluripotent stem cells to pre-placodal ectoderm and anterior pituitary progenitors. The cells were further differentiated to PROP1 lineage, and then to PIT1 lineage. The cells were then terminally differentiated to GH cells. The step-wise protocol to differentiate pluripotent stem cells into growth hormone secreting cells involved promoting Prop1 expression in anterior pituitary progenitors, activating POU1F1 (PIT1), directing cell differentiation to growth hormone expressing cells. The growth hormone expressing cells were also further matured via prolonged incubation. The key markers to monitor the process of differentiation comprised Prop1, POU1F1 (PIT1), GH and GHRHR.
For example, the first step was to induce non-neural ectoderm by BMP4 and inhibitor of TGF-β/Activin/NODAL pathway (e.g., SB431542). Then the cells were subjected to inhibitor of TGF-β/Activin/NODAL pathway (e.g., SB431542), FGF8/10/18, SHH agonist (e.g., SHH), and a SMAD inhibitor (e.g., LDN 193189) to induce anterior pituitary progenitors, which were characterized by PITX1/2, LHX3/4 and PROP1 expression.
For selective differentiation to somatotrophs, retinoic acid were used to suppress POMC expressed by corticotrophs and to promote GH1 expression which is expressed by somatotrophs. In addition, the corticosteroid (e.g., Dexamethasone) and thyroid hormone (e.g., T3) were added to the medium to inhibit PRL (expressed by lactotroph) and TSH (expressed by thyrotroph), while promoting GH1 expression.

rodent GSK3β homologs = details: cited from earlier work
somatotrophs = assay: GHRH stimulation of stem-cell-derived GH cell population; format: cell-based, human; details: cell population after growth hormone induction, FIG. 8 lower right panel
Description: as §1
On day 29, the cells entered the maturation phase and could be maintained in the same factors for a variable period ranging from 1-4 weeks. Cells at this stage expressed GHRH receptors (GHRHR). They could be subjected to FACS sorting for GHRH in order to obtain a pure cell population of somatotrophs. Cells remained on matrigel for the duration of the protocol.
After this step, the majority population in culture were somatotrophs which expressed the somatotroph marker GH1 and secreted growth hormone in the supernatant. The phenotype of the population is shown FIG. 8. The cell population expressed high amount of GH and GHRHR, and low amount of TSH, PRL and LH. GH expression was further increased upon GHRH stimulation (FIG. 8, lower right panel).

Molecule | PIT1 expression (Human ES or iPS cells) | GH1 expression (Human ES or iPS cells) | further results
Cc1c[nH]c(-c2cnc(NCCNc3ccc(C#N)cn3)nc2-c2ccc(Cl)cc2Cl)n1 [CHIR99021, 6-(2-(4-(2,4-dichlorophenyl)-5-(4-methyl-1H-imidazol-2-yl)pyrimidin-2-ylamino)ethylamino) nicotinonitrile, reference compound] | induce | – | IC50 values against rodent GSK3β homologs (rodent GSK3β homologs): nanomolar
GHRH: Growth Hormone Releasing Hormone, GHRH signaling pathway agonist (YADAIFTNSYRKVLGQLSARKLLQDIMSRQQGESNQERGARARL; ends and bridges not checked; UniProt P01286 32-75, looked up) | – | significantly increased; also recorded: further promoted | GH expression upon GHRH stimulation (somatotrophs): increased
N#CC(Cc1ccc(O)cc1)c1ccc(O)cc1 (stereo not drawn) [DPN, 2,3-bis(4-hydroxyphenyl) propionitrile, reference compound] | – | further promoted | –
Ghrelin: Ghrelin signaling pathway agonist (GSSFLSPEHQRVQQRKESKKPPAKLQPR; ends and bridges not checked; UniProt Q9UBU3 24-51, looked up) | – | promoting | –
N[C@@H](Cc1cc(I)c(Oc2ccc(O)c(I)c2)c(I)c1)C(=O)O [T3, reference compound] | – | – | TSH-β expression (Human ES or iPS cells; FIG. 7C, p-value<0.01 compared with the control groups): significantly reduced
C[C@]12C[C@H](O)[C@H]3[C@@H](CCC4=CC(=O)CC[C@@]43C)[C@@H]1CC[C@@H]2C(=O)CO [corticosterone, reference compound] | – | – | PRL expression (Human ES or iPS cells; FIG. 7D, p-value<0.01 compared with the control groups): significantly reduced
IL 6: interleukin | increased | increased | –
B1 | increased | increased | –
B2 | downregulated | – | PROP1 expression (Human ES or iPS cells; FIG. 3, FIG. 5): maintained; POMC expression (Human ES or iPS cells; FIG. 5): upregulated
